In US10738043B2, “GLS1 inhibitors for treating disease” (Board of Regents, The University of Texas System, priority 2015, dated 2020):
Like-named read-outs stand apart in the source and are kept apart here.

Tests used:
[1] = molecular target: T1, GLS1 (purified recombinant human GAC) (Homo sapiens, UniProt O94925); assay: GLS1 Enzymatic Activity Assay (dual-coupled enzymatic assay); format: biochemical; settings: 50 mM potassium phosphate, 1 mM glutamine, read-out: IC50 against GLS1
T1 sequence (O94925 55-598 isoform O94925-3 limits assumed): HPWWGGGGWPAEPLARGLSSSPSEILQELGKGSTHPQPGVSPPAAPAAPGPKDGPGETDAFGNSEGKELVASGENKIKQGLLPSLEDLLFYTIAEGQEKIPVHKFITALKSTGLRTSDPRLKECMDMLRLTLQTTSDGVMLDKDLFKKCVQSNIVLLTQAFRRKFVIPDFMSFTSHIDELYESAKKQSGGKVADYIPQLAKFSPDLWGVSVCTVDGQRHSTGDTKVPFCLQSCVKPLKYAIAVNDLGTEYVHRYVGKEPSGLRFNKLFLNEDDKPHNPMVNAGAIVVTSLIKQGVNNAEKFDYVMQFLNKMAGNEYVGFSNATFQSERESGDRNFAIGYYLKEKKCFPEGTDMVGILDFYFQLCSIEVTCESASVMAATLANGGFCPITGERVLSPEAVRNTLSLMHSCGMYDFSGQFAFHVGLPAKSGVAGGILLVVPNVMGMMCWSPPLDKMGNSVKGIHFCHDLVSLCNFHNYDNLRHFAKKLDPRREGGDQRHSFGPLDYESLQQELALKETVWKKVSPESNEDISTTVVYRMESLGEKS
Experimental: GLS1 Enzymatic Activity Assay
The inhibition of purified recombinant human GAC by varying concentrations of inhibitors is assessed via a dual-coupled enzymatic assay. The glutamate produced by the glutaminase reaction is used by glutamate oxidase to produce α-ketoglutarate, ammonia, and hydrogen peroxide, with this hydrogen peroxide subsequently being used by horseradish peroxidase to produce resorufin in the presence of Amplex UltraRed. The assay buffer consisted of 50 mM HEPES (pH 7.4), 0.25 mM EDTA and 0.1 mM Triton X-100. GAC was incubated with potassium phosphate (10 minutes at room temperature) prior to incubation with inhibitor (10 minutes at room temperature). The final reaction conditions were as follows: 2 nM GAC, 50 mM potassium phosphate, 100 mU/ml glutamate oxidase (Sigma), 1 mM glutamine (Sigma), 100 mU/ml horseradish peroxidase (Sigma), 75 μM Amplex UltraRed (Life Technologies), and 1% (v/v) DMSO. The production of resorufin was monitored on a Perkin Elmer Envision plate reader (excitation 530 nm, emission 590 nm) either in a kinetics or endpoint mode (at 20 minutes). IC50 values were calculated using a four-parameter logistic curve fit.

[2] = test system: A549 cells; assay: Proliferation Assay (A549 viability, Cell Titer Fluor, 72 hours); format: cell-based; settings: read-out: EC50 against A549 cell proliferation
Experimental: A549 cells were routinely maintained in RPMI 1640 media (Gibco catalog number 11875-093) supplemented with 10% dialyzed fetal bovine serum using a humidified incubator (37° C., 5% CO2 and ambient O2). In preparation for the viability assay, cells were inoculated into 384-well black CulturPlates (Perkin Elmer) at a density of 1000 cells/well in a volume of 40 μl. Following a 24-hour incubation at 37° C., 5% CO2 and ambient 02, cells were treated with compound (10 μl) in a final DMSO concentration of 0.5% (v/v). The microplates were then incubated for 72 hours (37° C., 5% CO2 and ambient O2). Cell Titer Fluor (Promega) was subsequently added (10 μl of 6× reagent) and mixed for 15 minutes at room temperature. The plates were then incubated for 30 minutes (37° C., 5% CO2 and ambient O2) and fluorescence was subsequently read on the Perkin Elmer Envision plate reader. EC50 values were calculated using a four-parameter logistic curve fit.

| Compound | IC50 [1] | EC50 [2] | EC50 ([2]; Homo sapiens) |
| --- | --- | --- | --- |
| 2-(2-phenylthiazol-4-yl)-N-(5-(1-(6-(2-(3-(trifluoromethoxy)phenyl)acetamido)pyridazin-3-yl)pyrrolidin-3-yl)-1,3,4-thiadiazol-2-yl)acetamide [Example 30] | < 100 nM | < 100 nM |  |
| 2-(thiazol-4-yl)-N-(5-(1-(6-(2-(3-(trifluoromethoxy)phenyl)acetamido)pyridazin-3-yl)pyrrolidin-3-yl)-1,3,4-thiadiazol-2-yl)acetamide [Example 31] | < 100 nM | 100 to 500 nM |  |
| O=C(Cc1ccccc1)Nc1ccc(N2CCCC(c3nnc(NC(=O)Cc4ccccn4)s3)C2)nn1 (stereo not drawn) [Example 3, 2-Phenyl-N-(6-(3-(5-(2-(pyridin-2-yl)acetamido)-1,3,4-thiadiazol-2-yl)piperidin-1-yl)pyridazin-3-yl)acetamide] | < 100 nM |  | 100 to 500 nM |
| O=C(Nc1ccc(N2CCC(n3cc(C(=O)NCc4ccccn4)nn3)C2)nn1)OCc1ccccc1 (stereo not drawn) [Example 5, Benzyl (6-(3-(4-((pyridin-2-ylmethyl)carbamoyl)-1H-1,2,3-triazol-1-yl)pyrrolidin-1-yl)pyridazin-3-yl)carbamate] | 500 to 5000 nM |  | 500 to 5000 nM |
| CNC(=O)c1cn(C2CCN(c3ccc(NC(=O)Cc4cccc(OC(F)(F)F)c4)nn3)C2)nn1 (stereo not drawn) [Example 6, N-Methyl-1-(1-(6-(2-(3-(trifluoromethoxy)phenyl)acetamido)pyridazin-3-yl)pyrrolidin-3-yl)-1H-1,2,3-triazole-4-carboxamide] | 100 to 500 nM |  | 500 to 5000 nM |
| O=C(Cc1cccc(OC(F)(F)F)c1)Nc1ccc(N2CCCC(n3cc(C(=O)NCc4ccccn4)nn3)C2)nn1 (stereo not drawn) [Example 7, N-(Pyridin-2-ylmethyl)-1-(1-(6-(2-(3-(trifluoromethoxy)phenyl)acetamido)pyridazin-3-yl)piperidin-3-yl)-1H-1,2,3-triazole-4-carboxamide] | 100 to 500 nM |  | 500 to 5000 nM |
| O=C(Cc1ccccn1)Nc1ccc(N2CCC(c3nnc(NC(=O)Cc4ccccn4)s3)C2)nn1 (stereo not drawn) [Example 9, 2-(pyridin-2-yl)-N-(6-(3-(5-(2-(pyridin-2-yl)acetamido)-1,3,4-thiadiazol-2-yl)pyrrolidin-1-yl)pyridazin-3-yl)acetamide] | < 100 nM |  | 500 to 5000 nM |
| CC(=O)Nc1cn(C2CCN(c3ccc(NC(=O)Cc4cccc(OC(F)(F)F)c4)nn3)C2)nn1 (stereo not drawn) [Example 11, N-(6-(3-(4-acetamido-1H-1,2,3-triazol-1-yl)pyrrolidin-1-yl)pyridazin-3-yl)-2-(3-(trifluoromethoxy)phenyl)acetamide] | 100 to 500 nM |  | 500 to 5000 nM |
| CC(=O)Nc1nnc(C2CCN(c3ccc(NC(=O)Cc4ccccn4)nn3)C2)s1 (stereo not drawn) [Example 12, N-(6-(3-(5-acetamido-1,3,4-thiadiazol-2-yl)pyrrolidin-1-yl)pyridazin-3-yl)-2-(pyridin-2-yl)acetamide] | 100 to 500 nM |  |  |
| Nc1nnc(C2CCCN(c3ccc(NC(=O)Cc4cccc(OC(F)(F)F)c4)nn3)C2)s1 (stereo not drawn) [Example 13, N-(6-(3-(5-amino-1,3,4-thiadiazol-2-yl)piperidin-1-yl)pyridazin-3-yl)-2-(3-(trifluoromethoxy)phenyl)acetamide] | 100 to 500 nM |  | 500 to 5000 nM |
| O=C(Cc1cccc(OC(F)(F)F)c1)Nc1ccc(N2CCCC(c3nnc(NC(=O)Cc4ccccn4)s3)C2)nn1 (stereo not drawn) [Example 14, 2-(pyridin-2-yl)-N-(5-(1-(6-(2-(3-(trifluoromethoxy)phenyl)acetamido)pyridazin-3-yl)piperidin-3-yl)-1,3,4-thiadiazol-2-yl)acetamide] | < 100 nM |  | < 100 nM |
| CC(=O)Nc1nnc(C2CCCN(c3ccc(NC(=O)Cc4cccc(OC(F)(F)F)c4)nn3)C2)s1 (stereo not drawn) [Example 15, N-(6-(3-(5-acetamido-1,3,4-thiadiazol-2-yl)piperidin-1-yl)pyridazin-3-yl)-2-(3-(trifluoromethoxy)phenyl)acetamide] | < 100 nM |  | 100 to 500 nM |
| Nc1nnc(C2CCCN(c3nnc(NC(=O)Cc4cccc(OC(F)(F)F)c4)s3)C2)s1 (stereo not drawn) [Example 16, N-(5-(3-(5-amino-1,3,4-thiadiazol-2-yl)piperidin-1-yl)-1,3,4-thiadiazol-2-yl)-2-(3-(trifluoromethoxy)phenyl)acetamide] | 100 to 500 nM |  | 500 to 5000 nM |
| O=C(Cc1cccc(OC(F)(F)F)c1)Nc1ccc(N2CCC(c3nnc(NC(=O)Cc4ccccn4)s3)C2)nn1 (stereo not drawn) [Example 17, 2-(pyridin-2-yl)-N-(5-(1-(6-(2-(3-(trifluoromethoxy)phenyl)acetamido)pyridazin-3-yl)pyrrolidin-3-yl)-1,3,4-thiadiazol-2-yl)acetamide 2,2,2-trifluoroacetate] | < 100 nM |  | < 100 nM |
| O=C(Cc1cccc(OC(F)(F)F)c1)Nc1ccc(N2CCC(c3nnc(NC(=O)Cc4ccccc4F)s3)C2)nn1 (stereo not drawn) [Example 20, 2-(2-fluorophenyl)-N-(5-(1-(6-(2-(3-(trifluoromethoxy)phenyl)acetamido)pyridazin-3-yl)pyrrolidin-3-yl)-1,3,4-thiadiazol-2-yl)acetamide 2,2,2-trifluoroacetate] | < 100 nM |  | 100 to 500 nM |
| O=C(Cc1cccc(OC(F)(F)F)c1)Nc1ccc(C2CCN(c3nnc(C(=O)NCc4ccccn4)s3)C2)nn1 (stereo not drawn) [Example 22, N-(pyridin-2-ylmethyl)-5-(3-(6-(2-(3-(trifluoromethoxy)phenyl)acetamido)pyridazin-3-yl)pyrrolidin-1-yl)-1,3,4-thiadiazole-2-carboxamide] | < 100 nM |  | < 100 nM |

Next, values leading:

| IC50 [1] | EC50 [2] | EC50 ([2]; Homo sapiens) | Compound |
| --- | --- | --- | --- |
| 100 to 500 nM |  | 500 to 5000 nM | Nc1nnc(C2CCCN(c3ccc(NC(=O)Cc4ccccc4)nn3)C2)s1 (stereo not drawn) [Example 1, N-(6-(3-(5-Amino-1,3,4-thiadiazol-2-yl)piperidin-1-yl)pyridazin-3-yl)-2-phenylacetamide] |
| < 100 nM |  | 100 to 500 nM | O=C(Cc1ccccc1)Nc1ccc(N2CCCC(c3nnc(NC(=O)Cc4ccccc4)s3)C2)nn1 (stereo not drawn) [Example 2, 2-Phenyl-N-(6-(3-(5-(2-phenylacetamido)-1,3,4-thiadiazol-2-yl)piperidin-1-yl)pyridazin-3-yl)acetamide] |
| 100 to 500 nM |  | 500 to 5000 nM | CC(=O)Nc1nnc(C2CCCN(c3ccc(NC(=O)Cc4ccccc4)nn3)C2)s1 (stereo not drawn) [Example 4, N-(6-(3-(5-Acetamido-1,3,4-thiadiazol-2-yl)piperidin-1-yl)pyridazin-3-yl)-2-phenylacetamide] |
| 100 to 500 nM |  | 500 to 5000 nM | O=C(Cc1cccc(OC(F)(F)F)c1)Nc1ccc(N2CCC(n3cc(C(=O)NCc4ccccn4)nn3)C2)nn1 (stereo not drawn) [Example 8, N-(pyridin-2-ylmethyl)-1-(1-(6-(2-(3-(trifluoromethoxy)phenyl)acetamido)pyridazin-3-yl)pyrrolidin-3-yl)-1H-1,2,3-triazole-4-carboxamide] |
| < 100 nM |  | 100 to 500 nM | Cn1cc(CC(=O)Nc2nnc(C3CCN(c4ccc(NC(=O)Cc5cccc(OC(F)(F)F)c5)nn4)C3)s2)cn1 (stereo not drawn) [Example 18, 2-(1-methyl-1H-pyrazol-4-yl)-N-(5-(1-(6-(2-(3-(trifluoromethoxy)phenyl)acetamido)pyridazin-3-yl)pyrrolidin-3-yl)-1,3,4-thiadiazol-2-yl)acetamide 2,2,2-trifluoroacetate] |
| 100 to 500 nM |  | 500 to 5000 nM | Nc1nnc(C2CCN(c3ccc(NC(=O)Cc4cccc(OC(F)(F)F)c4)nn3)C2)s1 (stereo not drawn) [Example 19, N-(6-(3-(5-amino-1,3,4-thiadiazol-2-yl)pyrrolidin-1-yl)pyridazin-3-yl)-2-(3-(trifluoromethoxy)phenyl)acetamide] |
| < 100 nM |  | 100 to 500 nM | O=C(Cc1cccc(OC(F)(F)F)c1)Nc1ccc(C2CCN(c3nnc(NC(=O)Cc4ccccn4)s3)C2)nn1 (stereo not drawn) [Example 21, 2-(pyridin-2-yl)-N-(5-(3-(6-(2-(3-(trifluoromethoxy)phenyl)acetamido)pyridazin-3-yl)pyrrolidin-1-yl)-1,3,4-thiadiazol-2-yl)acetamide] |
